Read-outs that look alike come from different tables or passages of the source.
Tests used:
[1] = test system: alcohol dehydrogenase (ADH); assay: Breath ketone:alcohol ratio after 2° alcohol taggant; format: in vivo; conditions: breath concentrations
Method: The presence (and persistence) of their corresponding ketones (EDIMs) in exhaled breath represents definitive proof of ingestion of a medication containing 2° alcohols (or a 2° alcohol-based ester, carbonate ester, ketal, etc.) as taggants. In general due to increased steric hindrance, 2° alcohols are not as good substrates for ADH relative to 1° alcohols. Likewise, the enzymatic pathways to degrade alcohol-derived ketones appear less efficient than those for alcohol-derived aldehydes.

[2] = test system: alcohol dehydrogenase; conditions: cited from earlier work
[3] = molecular target: T1, CYP1A2 (Homo sapiens, UniProt P05177); conditions: given orally to humans; cited from earlier work
T1 sequence (P05177 1-516): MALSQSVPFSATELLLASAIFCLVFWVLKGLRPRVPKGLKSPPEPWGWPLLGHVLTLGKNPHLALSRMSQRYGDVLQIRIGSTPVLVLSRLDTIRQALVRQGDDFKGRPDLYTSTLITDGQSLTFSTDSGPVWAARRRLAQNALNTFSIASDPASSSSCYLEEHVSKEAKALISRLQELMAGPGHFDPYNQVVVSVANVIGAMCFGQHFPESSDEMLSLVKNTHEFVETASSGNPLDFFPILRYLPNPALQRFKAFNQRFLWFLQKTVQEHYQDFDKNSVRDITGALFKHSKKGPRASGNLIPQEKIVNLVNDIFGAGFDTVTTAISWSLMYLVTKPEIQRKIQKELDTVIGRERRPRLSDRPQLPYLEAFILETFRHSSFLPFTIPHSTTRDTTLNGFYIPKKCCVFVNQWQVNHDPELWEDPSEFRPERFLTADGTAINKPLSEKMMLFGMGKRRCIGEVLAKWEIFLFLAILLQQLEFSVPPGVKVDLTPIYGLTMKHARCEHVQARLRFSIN

[4] = molecular target: CYP 2D6 (Homo sapiens, UniProt P10635); conditions: via CYP 2D6; cited from earlier work
Sequence of CYP 2D6 (P10635 whole entry): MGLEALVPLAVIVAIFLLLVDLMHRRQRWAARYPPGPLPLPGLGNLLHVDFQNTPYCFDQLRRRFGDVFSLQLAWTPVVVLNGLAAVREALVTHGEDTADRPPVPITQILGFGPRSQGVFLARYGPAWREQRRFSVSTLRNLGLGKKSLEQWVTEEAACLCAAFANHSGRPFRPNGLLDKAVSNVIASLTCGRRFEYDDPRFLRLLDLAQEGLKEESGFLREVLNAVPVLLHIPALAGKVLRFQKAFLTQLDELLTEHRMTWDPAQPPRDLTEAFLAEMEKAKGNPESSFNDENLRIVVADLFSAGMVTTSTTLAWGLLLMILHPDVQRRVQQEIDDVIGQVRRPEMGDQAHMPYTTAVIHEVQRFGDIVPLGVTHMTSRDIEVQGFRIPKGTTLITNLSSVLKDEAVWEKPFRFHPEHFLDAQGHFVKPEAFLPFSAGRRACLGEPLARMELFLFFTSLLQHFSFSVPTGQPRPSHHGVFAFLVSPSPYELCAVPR

[5] = at 37° C.; cited from earlier work

## CCC(C)=O [2-butanone]
[1]
  ketone:alcohol ratio 2-butanone/2-butanol: > 1

## CO [Methanol, methanol]
[2]; in the absence of alcohol
  half life in the blood: 1.8 to 3.0 h
[2]; in the presence of alcohol
  half life in the blood: 8 to 24 h

## Cn1c(=O)c2c(ncn2C)n(C)c1=O [caffeine]
[3]
  fraction converted to theophylline: Approximately 80%

## COc1ccc2c3c1O[C@H]1[C@@H](O)C=C[C@H]4[C@@H](C2)N(C)CC[C@@]341 [codeine]
[4]
  fraction converted to morphine in vivo: about 10%

## CC(C)c1cccc(C(C)C)c1O [propofol]
[5]
  vapor pressure: ~0.2 mmHg

Source: patent US20100255598A1, “Medication Adherence Monitoring System” (priority 2007, published 2010)
